# Measurements as given in Sander's compilation of Henry's law constants (doi:10.1016/s0021-9673(00)91567-x).
# Assay: Henry solubility constant Hcp at 298.15 K (mol/(m3 Pa))
# Settings: reference: Przyjazny et al. (1983)
row,Henry solubility constant Hcp,SMILES
1,0.0033,CCCSCCC [dipropyl sulfide]
2,0.0056,CSC [dimethyl sulfide]
3,0.0044,c1ccsc1 [thiophene]
4,0.0028,CCS [ethanethiol]

# Second part, the compound before the results:
row,SMILES,Henry solubility constant Hcp
1,CCSCC [diethyl sulfide],0.0054
2,CCCCS [1-butanethiol],0.0022
3,CC(C)SC(C)C [di-(2-propyl)-sulfide],0.003
4,Cc1cccs1 [2-methylthiophene],0.0041
5,CCCS [1-propanethiol],0.0024
6,CS [methanethiol],0.0039
7,CCSSCC [diethyl disulfide],0.0063
